From US7687079B2, “Methods of treating ileus” (priority 2002, dated 2010)
Entries after “also recorded” stand apart in the source; their conditions may differ.

Assays:
IL-10 mRNA = IL-10 mRNA in muscularis after IM (real time RT-PCR); assay type: in vivo, mouse
Protocol: Pro- and anti-inflammatory gene expression was determined by real time RT-PCR. The small intestinal muscularis externa was collected at 4 time points (3, 6, 12, and 24 hr) postoperatively and snap frozen in liquid nitrogen. Total RNA extraction was performed using the guanidium-thiocyanate phenol-chloroform extraction method as described in Eskandari et al. (Id.) RNA pellets were resuspended in RNA-secure resuspension solution (Ambion Inc., Austin, Tex.), followed by removal of potential contaminating DNA by treatment with DNase I (DNA-Free Kit, Ambion Inc., Austin, Tex.). Equal aliquots (5 μg) of total RNA from each sample were quantified by spectrophotometry (wavelength […]). Peak mRNA expression was quantified in duplicate by SYBR Green two-step, real-time RT-PCR. β-actin was used as the endogenous reference. Aliquoted RNA (40 ng) was subjected to first-strand complementary DNA (cDNA) synthesis using random hexamers (PE applied Biosystems, Foster City, Calif.) and Super Script II (Life Technologies, Rockville, Md.). Primers were taken from the literature or designed according to published sequences (Table 3). PCR reaction mixture was prepared using SYBR Green PCR Core Reagents (PE Applied Biosystems). Each sample was estimated in duplicate using the conditions recommended by the manufacturer. Real-time PCR data were plotted as the ΔRn fluorescence signal versus the cycle number. An arbitrary threshold was set to the midlinear portion of the log ΔRn cycle plot. The threshold cycle (CT) is defined as the cycle number at which the ΔRn, crosses this threshold. Quantification of mRNA expression was normalized to β-actin and calculated relative to control using the comparative CT method.
To exclude PCR amplification of contaminating genomic DNA, RT-negative controls (samples containing RNA which was not reverse transcribed) were included in each PCR reaction. Melting curve analyses were performed for each reaction to ensure amplification of specific product. In addition, gel electrophoresis were performed for the primers to confirm the absence of non-specific bands and that the amplicons were of the correct size. PCR amplification efficiency of each target cDNA was measured by determining the colinearity of serial dilutions. Serial 3-fold dilutions of cDNA were performed in triplicate for all primers. Standard curves were generated by plotting CT values against relative input copy number to validate the primers. Slopes of the standard curves of −3.2±0.3 with correlation coefficients of 0.99 were considered to be acceptable, having corresponding efficiencies of 100±10%. Analyses of Mediator Release from Intestinal Muscularis

[1] = system: MPO+ cells infiltrating the muscularis; experiment: MPO histochemistry, leukocytes infiltrating intestinal muscularis after IM; assay type: in vivo, mouse; conditions: control and IM groups, 24 hr
Protocol: MPO Histochemistry. Muscularis whole-mounts were prepared from the mid-jejunum collected 24 hr post-operatively. Segments of intestine were immersed in KRB in a Sylgard lined glass dish (Midland, Mich.) and pinned without stretching along the mesenteric border. The length and width of the segments were measured with a caliper. The jejunal segment was then opened along the mesenteric border and stretched to 150% of the length and 250% of the width. The mucosa was removed using fine forceps, and the remaining tissue fixed in 100% denatured ethanol for 30 min. […] Tissues were mounted on glass slides using Gel/Mount™ (Biomedia Corp., Foster City, Calif.), cover-slipped and inspected by light microscopy (Nikon Microphot-FXA, Fryer, Huntley, Ill.) at a magnification of 200×. PMN's were counted in five to six adjacent optical fields centered between the mesenteric and antimesenteric borders.

[C-]#[O+] [CO, carbon monoxide]
IL-10 gene expression relative to controls (IL-10 mRNA; CO treated manipulated animals, 3 hr time point): 43 fold
IL-10 gene expression, increase over manipulation alone (IL-10 mRNA; IM + CO vs IM, 3 hr): 300%
IL-10 message (IL-10 mRNA; IM + CO vs IM, 3 hr but not 6 hr after surgery): increased
IL-10 expression (IL-10 mRNA; control mice, CO inhalation alone, 3 and 6 hr): significant increase; also recorded: significantly increased
magnitude of the leukocyte infiltrate (MPO+ cells) [1]: no effect
